Where two headings read alike, the source gives them in different places.
How the values were obtained:
Test in all cases: biochemical
Assay type in all cases: binding
DRB1*0901 = DRB1*0901 (Homo sapiens, UniProt P01903+P01911, A100R/A103E/D57H/D86V/F55Y/F60I/F76Y/I96F/K127E/L162R/M171V/P40D/Q125H/Q99R/R33Q/R42F/S133A/S66N/T210M/V115G/W38K/Y107V/Y59G/Y89S)
DRB1*0802 = DRB1*0802 (Homo sapiens, UniProt P01903+P01911, A100R/A103L/A169T/F76Y/H45Y/I96F/K41T/L162R/M171V/P40S/Q125H/Q178H/Q39Y/Q99D/R218S/R42G/S66Y/V115G/W38E)
DRB4*0101 = DRB4*0101 (Homo sapiens, UniProt P01903+P13762, G164S)
DRB1*1501 = DRB1*1501 (Homo sapiens, UniProt P01903+P01911)
DRB1*0401 = DRB1*0401 (Homo sapiens, UniProt P01903+P01911, A100K/A169T/F76Y/I96L/K127E/L162R/M171V/N62H/P40V/Q125Y/R42H/S133A/S149N/S66Y/V115G/V209L/W38E)
DRB1*0701 = DRB1*0701 (Homo sapiens, UniProt P01903+P01911, A100R/A102G/A103Q/D57E/D86V/E43K/F76Y/K127E/L162R/M171V/P40G/Q125H/Q99D/R33Q/R42Y/R54Q/S133A/S66F/T210M/V115G/Y107V/Y59L/Y89S)
DRB1*0301 = DRB1*0301 (Homo sapiens, UniProt P01903+P01911, A100K/A102G/A103R/A169T/F55Y/I96L/K41T/L162R/M171V/P40S/Q125H/Q178H/Q39Y/R42S/S66N/T106N/T262R/W38E/Y61H)
DRB1*1302 = DRB1*1302 (Homo sapiens, UniProt P01903+P01911, A100E/A169T/K41T/L162R/M171V/P40S/Q125H/Q178H/Q39Y/Q99D/R42S/S66N/T262R/V115G/W38E/Y61H)
DRB1*0101 = DRB1*0101 (Homo sapiens, UniProt P01903+P01911, A100R/D57E/F55L/F60I/F76Y/I96L/L162R/M171V/P40L/Q125E/R42F/V115G/Y59C)
DRB1*1101 = DRB1*1101 (Homo sapiens, UniProt P01903+P01911, A100R/A169T/A87E/I96F/K41T/L162R/M171V/P40S/Q125H/Q178H/Q39Y/Q99D/R42S/S66Y/T262R/V115G/W38E)
DRB1*0405 = DRB1*0405 (Homo sapiens, UniProt P01903+P01911, A100R/A169T/D86S/F76Y/I96L/K127E/L162R/M171V/N62H/P40V/Q125Y/R42H/S133A/S149N/S66Y/V115G/V209L/W38E)
DRB3*0101 = DRB3*0101 (Homo sapiens, UniProt P01903+P79483)
DRB1*0404 = DRB1*0404 (Homo sapiens, UniProt P01903+P01911, A100R/A169T/F76Y/I96L/K127E/L162R/M171V/N62H/P40V/Q125Y/R42H/S133A/S149N/S66Y/V209L/W38E)
DRB5*0101 = DRB5*0101 (Homo sapiens, UniProt P01903+Q30154)
[1] = competitive inhibition of radiolabeled standard peptide, '-' distinct from ND, read-out: Binding Affinity (nM) DRB1*0901
[2] = competitive inhibition of radiolabeled standard peptide, '-' distinct from ND, read-out: Binding Affinity (nM) DRB1*1302
[3] = competitive inhibition of radiolabeled standard peptide, DRB1*0901, read-out: Binding Affinity (nM) DRB1*0901
[4] = competitive inhibition of radiolabeled standard peptide, DRB1*1302, read-out: Binding Affinity (nM) DRB1*1302

Chain of DRB1*0301 (P01903 26-254, other chains not shown): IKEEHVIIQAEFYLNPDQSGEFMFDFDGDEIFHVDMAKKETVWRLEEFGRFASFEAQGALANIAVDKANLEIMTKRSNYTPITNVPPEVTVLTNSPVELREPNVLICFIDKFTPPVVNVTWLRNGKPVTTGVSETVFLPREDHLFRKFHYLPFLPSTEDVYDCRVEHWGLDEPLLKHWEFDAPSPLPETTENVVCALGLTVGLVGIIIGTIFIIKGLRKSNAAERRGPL
Chain of DRB1*1101 (P01903 26-254, other chains not shown): as above
Chain of DRB1*1302 (P01903 26-254 limits assumed, other chains not shown): as the sequence (P01903 26-254, other chains not shown) above

Compound	IC50 (DRB1*0901; [1])	IC50 (DRB1*0802)	IC50 (DRB4*0101)	IC50 (DRB1*1501)	IC50 (DRB1*0401)	IC50 (DRB1*0701)	IC50 (DRB1*0301)	IC50 (DRB1*1302; [2])	IC50 (DRB1*0101)	IC50 (DRB1*1101)	IC50 (DRB1*0405)	IC50 (DRB3*0101)	IC50 (DRB1*0404)	IC50 (DRB1*0901; [3])	IC50 (DRB1*1302; [4])	IC50 (DRB5*0101)	IC50 (DRB1*0901)	IC50 (DRB1*1302)
CC[C@H](C)[C@H](NC(=O)[C@H](CC(C)C)NC(=O)[C@H](CCCNC(=N)N)NC(=O)CNC(=O)[C@@H](N)CC(N)=O)C(=O)N[C@H](C(=O)N[C@@H](C)C(=O)N[C@@H](CC(N)=O)C(=O)N1CCC[C@H]1C(=O)N[C@H](C(=O)N[C@H](C(=O)N[C@H](C(=O)N[C@@H](CCCCN)C(=O)N[C@@H](CCCCN)C(=O)N[C@@H](CCC(=O)O)C(=O)O)[C@@H](C)O)C(C)C)C(C)C)[C@@H](C)O [Envelope 346-360]	333 nM	288 nM	3000 nM	332 nM	343 nM	68 nM	216 nM	15 nM	4.5 nM	10600 nM	6740 nM	18300 nM	15300 nM	–	–	–	–	–
CC(C)C[C@H](NC(=O)[C@@H](NC(=O)CNC(=O)[C@H](CC(N)=O)NC(=O)[C@H](CO)NC(=O)[C@H](Cc1c[nH]c2ccccc12)NC(=O)[C@H](CC(C)C)NC(=O)[C@@H](NC(=O)[C@H](Cc1c[nH]cn1)NC(=O)[C@H](CO)NC(=O)[C@H](CCCCN)NC(=O)[C@@H]1CCCN1C(=O)[C@@H](N)Cc1c[nH]c2ccccc12)[C@@H](C)O)C(C)C)C(=O)N[C@@H](CCC(=O)O)C(=O)N[C@@H](CO)C(=O)O [NS1 225-239]	9390 nM	4830 nM	6540 nM	4120 nM	322 nM	5690 nM	520 nM	59 nM	3920 nM	12900 nM	4420 nM	–	3930 nM	–	–	–	–	–
CC[C@H](C)[C@H](NC(=O)[C@H](CC(N)=O)NC(=O)CNC(=O)[C@@H](NC(=O)CNC(=O)[C@H](CC(N)=O)NC(=O)[C@@H](N)CO)[C@@H](C)O)C(=O)N[C@H](C(=O)N[C@@H](CO)C(=O)N[C@@H](CO)C(=O)N[C@H](C(=O)N[C@@H](CC(N)=O)C(=O)N[C@@H](CCSC)C(=O)N[C@H](C(=O)N[C@@H](CO)C(=O)N[C@@H](CCCNC(=N)N)C(=O)N[C@@H](CC(C)C)C(=O)O)C(C)C)C(C)C)C(C)C [NS5 221-237]	–	5.8 nM	60 nM	20 nM	1.1 nM	21 nM	15 nM	–	4 nM	31 nM	25 nM	6300 nM	84 nM	45 nM	65 nM	–	–	–
CSCC[C@H](NC(=O)[C@@H](NC(=O)[C@H](Cc1ccccc1)NC(=O)[C@H](CCCNC(=N)N)NC(=O)[C@H](CC(N)=O)NC(=O)[C@H](CC(C)C)NC(=O)[C@H](CC(C)C)NC(=O)[C@H](CC(C)C)NC(=O)[C@H](CCCNC(=N)N)NC(=O)[C@H](CO)NC(=O)[C@@H](NC(=O)[C@@H](N)CCSC)C(C)C)[C@@H](C)O)C(=O)N[C@H](C(=O)N[C@@H](Cc1c[nH]cn1)C(=O)N[C@@H](CCCNC(=N)N)C(=O)N[C@@H](CCCNC(=N)N)C(=O)O)[C@@H](C)O [NS5 233-248]	–	159 nM	617 nM	307 nM	57 nM	97 nM	327 nM	–	108 nM	16 nM	699 nM	2240 nM	1070 nM	569 nM	34 nM	–	–	–
C[C@@H](O)[C@H](NC(=O)[C@H](CO)NC(=O)[C@H](CO)NC(=O)[C@H](Cc1c[nH]cn1)NC(=O)[C@H](CCC(=O)O)NC(=O)[C@H](CCC(=O)O)NC(=O)[C@@H](N)CCCCN)C(=O)N[C@@H](Cc1c[nH]c2ccccc12)C(=O)N[C@@H](Cc1c[nH]cn1)C(=O)N[C@@H](Cc1ccc(O)cc1)C(=O)N[C@@H](CC(=O)O)C(=O)N[C@@H](CC(=O)O)C(=O)N[C@@H](CCC(=O)O)C(=O)N[C@@H](CC(N)=O)C(=O)N1CCC[C@H]1C(=O)N[C@@H](Cc1ccc(O)cc1)C(=O)N[C@@H](CCCCN)C(=O)O [NS5 284-300]	–	1540 nM	14100 nM	5900 nM	306 nM	2490 nM	9.3 nM	–	2100 nM	1400 nM	8690 nM	17 nM	18200 nM	8140 nM	2030 nM	–	–	–
CC[C@H](C)[C@H](NC(=O)[C@H](Cc1ccc(O)cc1)NC(=O)CNC(=O)[C@H](CC(C)C)NC(=O)[C@H](CCCCN)NC(=O)[C@H](Cc1c[nH]cn1)NC(=O)[C@H](CC(C)C)NC(=O)CNC(=O)[C@H](CCC(=O)O)NC(=O)CNC(=O)[C@H](CCC(=O)O)NC(=O)[C@@H](NC(=O)CNC(=O)[C@H](CO)NC(=O)[C@H](Cc1ccc(O)cc1)NC(=O)[C@H](CO)NC(=O)[C@@H](N)CC(N)=O)C(C)C)C(=O)O [NS5 501-517]	–	836 nM	–	3050 nM	74 nM	18 nM	4420 nM	–	7 nM	8180 nM	2400 nM	2960 nM	4370 nM	–	4990 nM	1120 nM	–	–
CC[C@H](C)[C@H](NC(=O)[C@H](C)NC(=O)[C@H](CC(N)=O)NC(=O)[C@H](CO)NC(=O)[C@H](C)NC(=O)[C@H](CC(C)C)NC(=O)[C@H](CCCNC(=N)N)NC(=O)[C@H](CC(C)C)NC(=O)[C@H](CC(=O)O)NC(=O)[C@H](CCCNC(=N)N)NC(=O)[C@H](CCCNC(=N)N)NC(=O)[C@H](Cc1c[nH]cn1)NC(=O)[C@H](Cc1ccccc1)NC(=O)[C@H](Cc1ccc(O)cc1)NC(=O)[C@@H](N)CCSC)C(=O)O [NS5 765-779]	–	7.8 nM	–	118 nM	4.7 nM	18 nM	1280 nM	–	41 nM	17 nM	18 nM	–	34 nM	–	–	726 nM	61 nM	4.9 nM
CC[C@H](C)[C@H](NC(=O)[C@H](C)NC(=O)[C@H](CC(N)=O)NC(=O)[C@H](CO)NC(=O)[C@H](C)NC(=O)[C@H](CC(C)C)NC(=O)[C@H](CCCNC(=N)N)NC(=O)[C@H](CC(C)C)NC(=O)[C@H](CC(=O)O)NC(=O)[C@H](CCCNC(=N)N)NC(=O)[C@@H](N)CCCNC(=N)N)C(=O)N[C@@H](CS)C(=O)N[C@@H](CO)C(=O)N[C@@H](C)C(=O)N[C@H](C(=O)N1CCC[C@H]1C(=O)N[C@H](C(=O)O)C(C)C)C(C)C [NS5 769-785]	–	28 nM	212 nM	21 nM	3.6 nM	121 nM	409 nM	–	28 nM	79 nM	16 nM	–	93 nM	61 nM	4.5 nM	–	–	–
